US8129367B2, “Compounds for the treatment of Hepatitis C” (Bristol-Myers Squibb Company, priority 2007, dated 2012)

What was measured:
[1] = tested on: HCV replicon cells; assay: HCV replicon FRET / luciferase assay; assay type: cell-based; details: Hepatitis C virus; 50% reduction in FRET or luciferase activity in HCV replicon cells
Protocol: FRET Assay Preparation. The HCV FRET screening assay was performed in 96-well cell culture plates. The FRET peptide (Anaspec, Inc.) (Taliani et al., Anal. Biochem. 1996, 240, 60-67) contains a fluorescence donor, EDANS, near one end of the peptide and an acceptor, DABCYL, near the other end. The fluorescence of the peptide is quenched by […] resonance energy transfer (RET) between the donor and the acceptor, but as the NS3 protease cleaves the peptide the products are released from RET quenching and the fluorescence of the donor becomes apparent. The assay reagent was made as follows: 5× cell Luciferase cell culture lysis reagent from Promega (#E153A) diluted to 1× with dH2O, NaCl added to 150 mM final, the FRET peptide diluted to 20 μM final from a 2 mM stock.
To prepare plates, HCV replicon cells, with or without a Renilla luciferase reporter gene, were trypsinized and plated in a 96-well plate with titrated test compounds added in columns 3 through 12; columns 1 and 2 contained a control compound (HCV control inhibitor), and the bottom row contained cells with DMSO only. The plates were then placed in a CO2 incubator at 37° C.
Assays. Subsequent to addition of the test compounds described above (FRET Assay Preparation), at various times the plate was removed and Alamar blue solution (Trek Diagnostics, #00-100) was added to measure cellular toxicity. After reading in a Cytoflour 4000 instrument (PE Biosystems), plates were rinsed with PBS and then used for FRET assay by the addition of 30 ul of the FRET peptide assay reagent described above (FRET Assay Preparation) per well. The plate was then placed into the Cytoflour 4000 instrument which had been set to 340 excite/490 emission, automatic mode for up to 20 cycles and the plate read in a kinetic mode. Typically, the signal to noise using an endpoint analysis after the reads was at least three-fold. Alternatively, after Alamar blue reading, plates were rinsed with PBS, then used for luciferase assay using the Promega Dual-Glo Luciferase Assay System or the Promega EnduRen Live Cell Substrate assay.
Compound analysis was performed by quantification of the relative HCV replicon inhibition and the relative cytotoxicity values. To calculate cytoxicity values, the average Alamar Blue fluorescence signals from the control wells were set as 100% non-toxic. The individual signals in each of the compound test wells were then divided by the average control signal and multiplied by 100% to determine […]. To calculate the HCV replicon inhibition values, an average background value was obtained from the two wells containing the highest amount of HCV control inhibitor at the end of the assay period. These numbers were similar to those obtained from naïve Huh-7 cells. The background numbers were then subtracted from the average signal obtained from the control wells and this number was used as 100% activity. The individual signals in each of the compound test wells were then divided by the averaged control values after background subtraction and multiplied by 100% to determine percent activity. EC50 values were calculated as the concentration which caused a 50% reduction in FRET or luciferase activity. The two numbers generated for the compound plate, percent cytoxicity and percent activity, were used to determine compounds of interest for further analysis.

[2] = molecular target: T1, HCV NS5B (Hepatitis C virus genotype 1b, UniProt Q9WMX2); assay: HCV NS5B RdRp enzyme assay; assay type: biochemical; details: HCV NS5B RdRp genotype 1b enzyme
T1 construct: The protein was expressed with an 18 amino acid C-terminal truncation to enhance the solubility; made in house; host or cells: E. coli BL21(DE3)
Protocol: HCV NS5B RdRp cloning, expression, and purification. The cDNA encoding the NS5B protein of HCV, genotype 1b, was cloned into the pET21a expression vector. The protein was expressed with an 18 amino acid C-terminal truncation to enhance the solubility. The E. coli competent cell line BL21(DE3) was used for expression of the protein. Cultures were grown at 37° C. for ˜4 hours until the cultures reached an optical density of 2.0 at 600 nm. The cultures were cooled to 20° C. and induced with 1 mM IPTG. Fresh ampicillin was added to a final concentration of 50 μg/ml and the cells were grown overnight at 20° C.
Cell pellets (3 L) were lysed for purification to yield 15-24 mgs of purified NS5B. The lysis buffer consisted of 20 mM Tris-HCl, pH 7.4, 500 mM NaCl, 0.5% triton X-100, 1 mM DTT, 1 mM EDTA, 20% glycerol, 0.5 mg/ml lysozyme, 10 mM MgCl2, 15 ug/ml deoxyribonuclease I, and Complete™ protease inhibitor tablets (Roche). After addition of the lysis buffer, frozen cell pellets were resuspended using a tissue homogenizer. To reduce the viscosity of the sample, aliquots of the lysate were sonicated on ice using a microtip attached to a Branson sonicator. The sonicated lysate was centrifuged at 100,000×g for 1 hr at 4° C. and filtered through a 0.2 μm filter unit (Corning).
The protein was purified using two sequential chromatography steps: Heparin sepharose CL-6B and polyU sepharose 4B (Pharmacia). The chromatography buffers were identical to the lysis buffer but contained no lysozyme, deoxyribonuclease I, MgCl2 or protease inhibitor and the NaCl concentration of the buffer was adjusted according to the requirements for charging the protein onto the column. Each column was eluted with a NaCl gradient which varied in length from 5-50 column volumes depending on the column type. After the final chromatography step, the resulting purity of the enzyme is >90% based on SDS-PAGE analysis. The enzyme was aliquoted and stored at −80° C.
Standard HCV NS5B RdRp enzyme assay. HCV RdRp genotype 1b assays were run in a final volume of 60 μl in 96 well plates (Corning 3600). The assay buffer is composed of 20 mM Hepes, pH 7.5, 2.5 mM KCl, 2.5 mM MgCl2, 1 mM DTT, 1.6 U RNAse inhibitor (Promega N2515), 0.01 mg/ml BSA (Sigma B6917), and 2% glycerol. All compounds were serially diluted (3-fold) in DMSO and diluted further in water such that the final concentration of DMSO in the assay was 2%. HCV RdRp genotype 1b enzyme was used at a final concentration of 28 nM. A polyA template was used at 6 nM, and a biotinylated oligo-dT12 primer was used at 180 nM final concentration. Template was obtained commercially (Amersham 27-4110). Biotinylated primer was prepared by Sigma Genosys. 3H-UTP was used at 0.6 μCi (0.29 μM total UTP). Reactions were initiated by the addition of enzyme, incubated at 30° C. for 60 min, and stopped by adding 25 μl of 50 mM EDTA containing SPA beads (4 μg/μl, Amersham RPNQ 0007). Plates were read on a Packard Top Count NXT after >1 hr incubation at room temperature.
Modified HCV NS5B RdRp enzyme assay. A modified enzyme assay was performed essentially as described for the standard enzyme assay except for the following: The biotinylated oligo dT12 primer was precaptured on streptavidin-coated SPA beads by mixing primer and beads in assay buffer and incubating at room temperature for one hour. Unbound primer was removed after centrifugation. The primer-bound beads were resuspended in 20 mM Hepes buffer, pH 7.5 and used in the assay at final concentrations of 20 nM primer and 0.67 μg/μl beads. Order of addition in the assay: enzyme (1.75 nM) was added to diluted compound followed by the addition of a mixture of template (0.36 nM), 3H-UTP (0.6 μCi, 0.29 μM), and primer-bound beads, to initiate the reaction; concentrations given are final. Reactions were allowed to proceed for 4 hours at 30° C.
IC50 values for compounds were determined using seven different [I]. […]

T1 sequence (Q9WMX2 2420-2992): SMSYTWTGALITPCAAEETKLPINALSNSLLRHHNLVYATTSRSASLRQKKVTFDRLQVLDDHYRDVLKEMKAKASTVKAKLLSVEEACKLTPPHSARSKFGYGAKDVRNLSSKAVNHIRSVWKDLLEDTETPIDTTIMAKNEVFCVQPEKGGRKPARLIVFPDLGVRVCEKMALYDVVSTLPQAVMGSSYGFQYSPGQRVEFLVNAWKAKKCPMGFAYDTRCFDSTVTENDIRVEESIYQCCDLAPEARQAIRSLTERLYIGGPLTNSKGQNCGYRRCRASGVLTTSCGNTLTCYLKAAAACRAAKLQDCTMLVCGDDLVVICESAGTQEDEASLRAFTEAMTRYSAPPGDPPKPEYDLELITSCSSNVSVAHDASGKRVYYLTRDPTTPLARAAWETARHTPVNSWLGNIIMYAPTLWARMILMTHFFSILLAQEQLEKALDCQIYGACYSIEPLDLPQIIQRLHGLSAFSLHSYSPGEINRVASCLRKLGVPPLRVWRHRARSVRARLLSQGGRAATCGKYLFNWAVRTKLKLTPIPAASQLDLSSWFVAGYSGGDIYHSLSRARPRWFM

SMILES	EC50 [1] [nM]	IC50 [2] [nM]
CCC1(S(=O)(=O)NC(=O)c2ccc3c(C4CCCCC4)c4n(c3c2)CC2(C(=O)N3C5CCC3CN(C)C5)CC2c2cc(OC)ccc2-4)CC1 (stereo not shown)	4.2 to 500	4.2 to 500
COc1ccc2c(c1)C1CC1(C(=O)N1C3CCC1CN(C)C3)Cn1c-2c(C2CCCCC2)c2ccc(C(=O)NS(=O)(=O)C3(CC4CC4)CC3)cc21 (stereo not shown)	4.2 to 500	4.2 to 500
COc1ccc2c(c1)C1CC1(C(=O)N1C3CCC1CN(C)C3)Cn1c-2c(C2CCCCC2)c2ccc(C(=O)NS(=O)(=O)Cc3ccccn3)cc21 (stereo not shown)	4.2 to 500	4.2 to 500
COc1ccc2c(c1)C1CC1(C(=O)N1C3CCC1CN(C)C3)Cn1c-2c(C2CCCCC2)c2ccc(C(=O)NS(=O)(=O)Cc3cccc(Cl)c3)cc21 (stereo not shown)	4.2 to 500	4.2 to 500
COc1ccc2c(c1)C1CC1(C(=O)N1C3CCC1CN(C)C3)Cn1c-2c(C2CCCCC2)c2ccc(C(=O)NS(=O)(=O)Cc3cc(Cl)cc(Cl)c3)cc21 (stereo not shown)	4.2 to 500	4.2 to 500
COc1ccc2c(c1)C1CC1(C(=O)N1C3CCC1CN(C)C3)Cn1c-2c(C2CCCCC2)c2ccc(C(=O)NS(=O)(=O)c3sc(C)nc3C)cc21 (stereo not shown)	4.2 to 500	4.2 to 500
COc1ccc2c(c1)C1CC1(C(=O)N1C3CCC1CN(C)C3)Cn1c-2c(C2CCCCC2)c2ccc(C(=O)NS(=O)(=O)c3nc[nH]n3)cc21 (stereo not shown)	4.2 to 500	4.2 to 500
C=CS(=O)(=O)NC(=O)c1ccc2c(C3CCCCC3)c3n(c2c1)CC1(C(=O)N2C4CCC2CN(C)C4)CC1c1cc(OC)ccc1-3 (stereo not shown)	4.2 to 500	4.2 to 500
COc1ccc2c(c1)C1CC1(C(=O)N1C3CCC1CN(C)C3)Cn1c-2c(C2CCCCC2)c2ccc(C(=O)NS(=O)(=O)C=C(C)C)cc21 (stereo not shown)	4.2 to 500	4.2 to 500
COc1ccc2c(c1)C1CC1(C(=O)N1C3CCC1CN(C)C3)Cn1c-2c(C2CCCCC2)c2ccc(C(=O)NS(=O)(=O)c3ncccn3)cc21 (stereo not shown)	4.2 to 500	4.2 to 500
COc1ccc2c(c1)C1CC1(C(=O)N1C3CCC1CN(C)C3)Cn1c-2c(C2CCCCC2)c2ccc(C(=O)NS(=O)(=O)c3nc(C)cc(C)n3)cc21 (stereo not shown)	4.2 to 500	4.2 to 500
